Laboratory results taken from patent publication US9975897B2, “Pyrazolopyrimidine derivatives useful as inhibitors of Bruton's tyrosine kinase” (Loxo Oncology, Inc., priority 2014, dated 2018).

Columns and labels:
[1] = rat; cited from earlier work
[2] = system: TMD8 human DLBCL cells; assay: TMD8 growth assay; assay type: cell-based; conditions: 72 hours, Resazurin, Table 3 categories
Method: Compounds were assayed for effects on the growth of TMD8 human DLBCL cells that are dependent on NFκB signalling. TMD8 cells were grown in suspension in T225 flasks, centrifuged and re-suspended in 2.5% FBS containing media. Cells were then plated at 1.0×10^4 cells per well in 96-well plates in varying concentrations of compound and incubated for 72 hours at 37° C. An additional plate of cells to be used as the Day 0 read was seeded without compound addition, Resazurin was added to each well, incubated for 5 h and the fluorescence measured at 590 nm. After 72 h of compound treatment, Resazurin was added to each well of the compound treated plates, incubated for 5 hours and the fluorescence measured at 590 nm. The IC50 was then calculated but subtracting the average Day 0 value from each well value from the treated plates, each treatment was then calculated as a percentage of the DMSO control and the percentages plotted against the inhibitor concentration to estimate the IC50 from log [Inhibitor] vs response using the Variable Slope model in Graphpad prism from Graphpad software (San Diego, Calif.).

[3] = target: T1, Recombinant EGFR (Homo sapiens, UniProt P00533); assay: EGFR binding affinity (TR-FRET); conditions: 2.5 nM recombinant EGFR, five hours incubation, Table 3 categories
T1 construct: purchased Invitrogen
T1 sequence (P00533 25-1210): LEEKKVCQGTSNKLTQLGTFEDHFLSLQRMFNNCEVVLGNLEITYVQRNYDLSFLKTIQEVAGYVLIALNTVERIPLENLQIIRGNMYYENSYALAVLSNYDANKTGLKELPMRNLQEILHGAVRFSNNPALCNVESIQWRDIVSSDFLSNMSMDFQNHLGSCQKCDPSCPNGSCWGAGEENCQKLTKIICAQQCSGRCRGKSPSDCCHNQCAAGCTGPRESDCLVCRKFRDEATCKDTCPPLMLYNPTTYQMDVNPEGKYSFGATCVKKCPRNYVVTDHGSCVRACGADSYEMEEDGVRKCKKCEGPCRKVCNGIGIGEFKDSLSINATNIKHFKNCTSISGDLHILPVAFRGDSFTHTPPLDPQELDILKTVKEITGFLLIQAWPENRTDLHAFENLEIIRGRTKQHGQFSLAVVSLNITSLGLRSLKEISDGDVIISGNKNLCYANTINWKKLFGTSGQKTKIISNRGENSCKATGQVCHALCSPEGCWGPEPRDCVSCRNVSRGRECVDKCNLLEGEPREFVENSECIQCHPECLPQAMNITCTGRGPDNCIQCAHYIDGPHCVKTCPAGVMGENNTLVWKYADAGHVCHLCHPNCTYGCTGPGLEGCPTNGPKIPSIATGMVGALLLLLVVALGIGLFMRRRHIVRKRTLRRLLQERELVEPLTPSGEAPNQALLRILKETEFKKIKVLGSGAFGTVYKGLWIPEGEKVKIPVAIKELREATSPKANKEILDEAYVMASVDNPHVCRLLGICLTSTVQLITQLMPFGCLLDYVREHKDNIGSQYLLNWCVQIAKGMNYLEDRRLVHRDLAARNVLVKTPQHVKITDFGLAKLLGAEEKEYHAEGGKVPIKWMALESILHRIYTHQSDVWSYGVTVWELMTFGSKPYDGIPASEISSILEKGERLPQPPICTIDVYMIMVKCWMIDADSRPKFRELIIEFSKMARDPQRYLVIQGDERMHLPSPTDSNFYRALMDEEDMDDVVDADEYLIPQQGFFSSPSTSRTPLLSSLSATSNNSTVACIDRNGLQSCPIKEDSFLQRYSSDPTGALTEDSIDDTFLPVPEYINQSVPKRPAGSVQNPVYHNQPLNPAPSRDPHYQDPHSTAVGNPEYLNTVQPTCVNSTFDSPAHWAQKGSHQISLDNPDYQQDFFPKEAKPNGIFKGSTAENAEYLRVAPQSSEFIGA
Method: EGFR binding affinity was determined using a time-resolved fluorescence resonance energy transfer (TR-FRET) methodology. 2.5 nM Recombinant EGFR, varying concentrations of inhibitor, 2 nM LanthaScreen™ Eu anti-GST Antibody and 3 nM Kinase Tracer 199 was incubated in 1× LanthaScreen™ Kinase Buffer A for five hours. Recombinant EGFR and all LanthaScreen™ components were purchased from Invitrogen. Measurements were performed in a reaction volume of 30 μL using half-area 96-well assay plates. The TR-FRET signal was read on a plate reader with an excitation wavelength of 340 nm and detection wavelengths of 615 and 665 nm. Binding affinity was determined for each compound by measuring TR-FRET signal at various concentrations of compound and plotting the relative fluorescence units against the inhibitor concentration to estimate the IC50 from log [Inhibitor] vs response using the Variable Slope model in Graphpad prism from Graphpad software (SanDiego, Calif.).

[4] = target: T2, Recombinant BTK kinase (Homo sapiens, UniProt Q06187); assay: BTK binding affinity (TR-FRET)
T2 construct: purchased Invitrogen
T2 sequence (Q06187 whole entry): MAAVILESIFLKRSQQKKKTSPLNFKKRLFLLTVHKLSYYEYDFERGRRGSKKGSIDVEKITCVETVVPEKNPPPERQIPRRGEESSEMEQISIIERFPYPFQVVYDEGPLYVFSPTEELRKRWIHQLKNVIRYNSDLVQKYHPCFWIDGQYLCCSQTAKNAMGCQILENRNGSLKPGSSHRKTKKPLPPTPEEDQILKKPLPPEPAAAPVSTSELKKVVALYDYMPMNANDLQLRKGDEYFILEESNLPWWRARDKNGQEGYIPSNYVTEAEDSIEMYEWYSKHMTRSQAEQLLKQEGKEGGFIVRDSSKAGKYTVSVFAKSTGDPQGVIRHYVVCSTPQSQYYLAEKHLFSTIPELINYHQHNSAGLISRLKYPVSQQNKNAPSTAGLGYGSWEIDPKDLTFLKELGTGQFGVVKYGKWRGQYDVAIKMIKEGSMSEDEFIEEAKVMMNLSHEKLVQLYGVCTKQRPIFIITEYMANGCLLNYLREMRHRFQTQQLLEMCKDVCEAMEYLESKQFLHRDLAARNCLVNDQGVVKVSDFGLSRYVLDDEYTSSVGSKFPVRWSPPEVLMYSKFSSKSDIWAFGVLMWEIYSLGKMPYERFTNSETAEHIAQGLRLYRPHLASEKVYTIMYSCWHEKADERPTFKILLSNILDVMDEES
Method: BTK binding affinity of each compound tested was determined using a time-resolved fluorescence resonance energy transfer (TR-FRET) methodology. 2.5 nM Recombinant BTK kinase, varying concentrations of inhibitor, 2 nM LanthaScreen™ Eu anti-His Antibody and 15 nM Kinase Tracer 236 was incubated in 1× LanthaScreen™ Kinase Buffer A for five hours. Recombinant BTK kinase and all LanthaScreen™ components were purchased from Invitrogen. Measurements were performed in a reaction volume of 30 μL using half-area 96-well assay plates. The TR-FRET signal was read on a plate reader with an excitation wavelength of 340 nm and detection wavelengths of 615 and 665 nm. Binding affinity was determined for each compound by measuring TR-FRET signal at various concentrations of compound and plotting the relative fluorescence units against the inhibitor concentration to estimate the IC50 from log [Inhibitor] vs response using the Variable Slope model in Graphpad prism from Graphpad software (SanDiego, Calif.).

[5] = 2.5 nM recombinant BTK, five hours incubation, Table 3 categories

Row | IC50 [3] | IC50 [4, 5] | IC50 ([4]; Table 4 numeric values) | SMILES | bioavailability [1] | estimated fraction absorbed [1] | IC50 [2]
1 |  |  |  | C=CC(=O)N1CCC[C@@H](n2nc(-c3ccc(Oc4ccccc4)cc3)c3c(N)ncnc32)C1 [Ibrutinib] | poor | low | 
2 | < 25 nM | 1 to 10 nM |  | C=CC(=O)N1CCC[C@@H](n2nc(-c3ccc(CNC(=O)c4ccc(C(F)(F)F)cc4F)cc3)c3c(N)ncnc32)C1 [ID No. 36, N-[[4-[4-amino-1-[(3R)-1-prop-2-enoyl-3-piperidyl]pyrazolo[3,4-d]pyrimidin-3-yl]phenyl]methyl]-2-fluoro-4-(trifluoromethyl)benzamide] |  |  | 25 to 300 nM
3 | 25 to 80 nM | 0.5 to 1 nM | 0.7 nM | C=CC(=O)N1CCC[C@@H](n2nc(-c3ccc(CNC(=O)c4ccc(C)cc4OC)cc3)c3c(N)ncnc32)C1 [ID No. 15, N-[[4-[4-amino-1-[(3R)-1-prop-2-enoyl-3-piperidyl]pyrazolo[3,4-d]pyrimidin-3-yl]phenyl]methyl]-2-methoxy-4-methyl-benzamide] |  |  | < 5 nM
